The results in this text go back to patent US8933016B2, “Metallodrugs having improved pharmacological properties and methods of manufacture and use thereof” (priority 2012, dated 2015).

Data set [1] has as its system S. pneumoniae, 49619 (Sp).
A short description of data set [2]: Cytotoxicity toward human Huh7 liver cells.
For data set [3], the system named is E. coli O157:H7, BAA-1883 (Ec F).
The next data set relates to MRSA, 43300. To be noted: Mueller Hinton Broth.
Data set [4] has as its system A. baumanii, BAA-747 (Ab).
For data set [5], the system named is H. influenzae, 49247 (Hi).
Data set [6] relates to K. pneumonia, 700603 (Kp). It is filed as cell-based. To be noted: Mueller Hinton Broth.
The subject of another data set is E. faecium, 700221 (Ef). The conditions noted are these: Mueller Hinton Broth.

pIC50: −log10 of the molar value. ≈ marks a conversion by molar mass, not a printed value. Read-outs that look alike come from different tables or passages of the source. Ends that are not written are not given here. Peptide text beside a SMILES is read from it. * marks the point of attachment. X4 = COCCOCCOCCOCCOCCOCCOCCOCCOCCOCCOCCOCCOCCOCCOCCOCCOCCOCCOCCOCCOCCOCCOCCOCCOCCOCCOCCOCCOCCOCCOCCOCCOCCOCCOCCOCCOCCOCCOCCOCCOCCOCCOCCOCCOCCOCCOCCOCCNC(=O)CCN1C(=O)CC(*)C1=O; X2 = COCCOCCOCCOCCOCCOCCOCCOCCOCCOCCOCCOCCOCCOCCOCCOCCOCCOCCOCCOCCOCCOCCOCCOCCNC(=O)CCN1C(=O)CC(*)C1=O

What is called pIC50 is the negative decadic logarithm of the IC50, by convention in mol/L. Turning to `CC[C@H](C)[C@H](NC(=O)[C@H](CCCCN)NC(=O)[C@H](Cc1c[nH]c2ccccc12)NC(=O)[C@H](CCCNC(=N)N)NC(=O)[C@H](CCCNC(=N)N)NC(=O)[C@H](Cc1c[nH]cn1)NC(=O)CNC(=O)CN)C(=O)N[C@H](C(=O)N[C@H](C(=O)N[C@H](C(=O)N[C@@H](CCCNC(=N)N)C(=O)N[C@@H](Cc1c[nH]c2ccccc12)C(=O)N[C@@H](CCCNC(=N)N)C(=O)N[C@@H](CCCNC(=N)N)C(=O)NCC(=O)NCC(=O)N[C@@H](CSC1CC(=O)N(CCC(=O)NCCOCCOCCOCCOCCOCCOCCOCCOCCOCCOCCOCCOCCOCCOCCOCCOCCOCCOCCOCCOCCOCCOCCOCCOC)C1=O)C(=O)O)[C@@H](C)CC)C(C)C)C(C)C` (some centres unmarked) [PEP 314 PEG 24] (H-GGHRRWKIVVIRWRRGGC(X2)-OH; C-terminus assumed), the “MIC Sp” value in data set [1] (49619 (Sp)) came to 4.7 µM (≈ 16.1 µg/mL). The pIC50 in data set [2] was less than 3.70. For the same compound, the “MIC Ec F” value in data set [3] (O157:H7) was 9.3 µM (≈ 31.9 µg/mL).

Take GGHTRQARRNRR [PEP 205, GGHTRQARRNRR]: the “MIC Pa” value against P. aeuginosa, 27583 (Pa) is 43.7 µM.

In the case of GGHGEYVLRNWRIVKVATTKAC [PEP 193], the “MIC MRSA” value in the data set on MRSA, 43300 is 13 µM.

GGHGWRWYCRGGK [PEP 323, GGHGWRWYCRGGK]: the “MIC Pa” value in the data set with P. aeuginosa, 27583 (Pa) was found to be 20.9 µM. The “MIC Ab” value in data set [4] (BAA-747) is 20.9 µM. For the same compound, in [5], the “MIC Hi” value is 1.5 µM. In addition, the “MIC Ec” value against E. coli, 25922 (Ec) (25922 (Ec)) stood at 20.9 µM. The “MIC Kp” value in data set [6] came to 20.9 µM.

With DOTA-Ampicillin [DOTAMP], the “MIC MRSA” value in the data set with MRSA, 43300 came out at 42.5 µM. The “MIC Ec” value in the data set with E. coli, 25922 (Ec) (Mueller Hinton Broth) worked out at 42.5 µM. The “MIC Ec F” value in [3] (Mueller Hinton Broth) stood at 42.5 µM.

Turning to `CC[C@H](C)[C@H](NC(=O)[C@H](CCCCN)NC(=O)[C@H](Cc1c[nH]c2ccccc12)NC(=O)[C@H](CCCNC(=N)N)NC(=O)[C@H](CCCNC(=N)N)NC(=O)[C@H](Cc1c[nH]cn1)NC(=O)CNC(=O)CN)C(=O)N[C@H](C(=O)N[C@H](C(=O)N[C@H](C(=O)N[C@@H](CCCNC(=N)N)C(=O)N[C@@H](Cc1c[nH]c2ccccc12)C(=O)N[C@@H](CCCNC(=N)N)C(=O)N[C@@H](CCCNC(=N)N)C(=O)NCC(=O)NCC(=O)N[C@@H](CSC1CC(=O)N(CCC(=O)NCCOCCOCCOCCOCCOCCOCCOCCOCCOCCOCCOCCOCCOCCOCCOCCOCCOCCOCCOCCOCCOCCOCCOCCOCCOCCOCCOCCOCCOCCOCCOCCOCCOCCOCCOCCOCCOCCOCCOCCOCCOCCOCCOCCOCCOCCOCCOCCOC)C1=O)C(=O)O)[C@@H](C)CC)C(C)C)C(C)C` (some centres unmarked) [PEP 314 PEG 48] (H-GGHRRWKIVVIRWRRGGC(X4)-OH; C-terminus assumed), the “MIC Sp” value in [1] (49619 (Sp)) was 7.1 µM (≈ 31.9 µg/mL). The compound further had a pIC50 in data set [2] of less than 3.70.

On to GGHWRWYCRGGK [PEP 322, GGHWRWYCRGGK], for which the “MIC Hi” value in [5] stood at 2.7 µM. In data set [6], the “MIC Kp” value was 7.6 µM.

As to GGHGWRWYCR [PEP 204, GGHGWRWYCR], the “MIC Pa” value against P. aeuginosa, 27583 (Pa) (Mueller Hinton Broth) was determined as 25 µM. For the same compound, the “MIC MRSA” value against MRSA, 43300 turned out to be 6.3 µM. Besides, the “MIC Ab” value in data set [4] (Mueller Hinton Broth) was 25.1 µM. Besides, the “MIC Ef” value in the data set on E. faecium, 700221 (Ef) turned out to be 25.1 µM. In addition, in the data set with E. coli, 25922 (Ec) (Mueller Hinton Broth), the “MIC Ec” value was determined as 3.1 µM. In addition, the “MIC Kp” value in [6] is 4.7 µM. The “MIC Ec F” value in data set [3] (Mueller Hinton Broth) turned out to be 50 µM.

On to `CC[C@H](C)[C@H](NC(=O)[C@H](Cc1c[nH]cn1)NC(=O)CNC(=O)CN)C(=O)N[C@@H](CC(C)C)C(=O)N1CCC[C@H]1C(=O)N[C@@H](Cc1c[nH]c2ccccc12)C(=O)N[C@@H](CCCCN)C(=O)N[C@@H](Cc1c[nH]c2ccccc12)C(=O)N1CCC[C@H]1C(=O)N[C@@H](Cc1c[nH]c2ccccc12)C(=O)N[C@@H](Cc1c[nH]c2ccccc12)C(=O)N1CCC[C@H]1C(=O)N[C@@H](Cc1c[nH]c2ccccc12)C(=O)N[C@@H](CCCNC(=N)N)C(=O)N[C@@H](CCCNC(=N)N)C(=O)NCC(=O)NCC(=O)N[C@@H](CS)C(=O)O` [PEP 316, GGHILPWKWPWWPWRRGGC], for which, in data set [5], the “MIC Hi” value was found to be 13.5 µM (≈ 32.1 µg/mL).

On to “GGHGRRWKIVVIRWRRGGC [PEP 321, GGHGRRWKIVVIRWRRGGC]”, for which the “MIC MRSA” value against MRSA, 43300 is 14.2 µM. For the same compound, in data set [4] (Mueller Hinton Broth), the “MIC Ab” value was 28.4 µM. Further, in data set [5], the “MIC Hi” value was 14.2 µM. Further, in [1] (Mueller Hinton Broth), the “MIC Sp” value was found to be 1.8 µM. Besides, the “MIC Ef” value in the data set with E. faecium, 700221 (Ef) came out at 7.1 µM. Besides, in data set [6], the “MIC Kp” value amounted to 14.2 µM. The “MIC Ec F” value in data set [3] (Mueller Hinton Broth) was determined as 14.2 µM.
